The nature of data set [1]: Brain and plasma concentrations in mice after oral dose. Type of data set: in vivo. As to conditions: female, CD-1, mouse, single oral dose of 50 mg kg^−1, 2 h. The protocol: These values for concentrations of free compound in the brain give a Kp,uu value of 0.6 (defined as the ratio of unbound compound in brain to unbound compound in plasma). This ratio provides an estimate of the amount of free drug in the brain interstitial fluid as being just over half the free concentration in the blood.
Blood samples were collected from terminal cardiac puncture at 0.08 (IV only), 0.25, 0.5, 1 (PO only), 2, 4, 8 and 24 hour time points. The whole blood was centrifuged to obtain plasma. Brains were also collected following cardiac perfusion from both sets of animals at 2 hours. Analysis of the biological samples was carried out by the company Selcia. Plasma proteins were precipitated by addition of PBS (1 volume) followed by 3 volumes of acetonitrile containing internal standard (verapamil). Following filtration through a protein precipitation plate the eluent was dried under nitrogen and re-suspended in mobile phase prior to analysis. Individual brains were homogenised in PBS and diluted to 10% w/v and divided into aliquots consisting of brain homogenate (1 volume, 0.3 ml) and 3 volumes (0.9 ml) of acetonitrile containing internal standard. Samples were centrifuged and supernatants removed and taken through a protein precipitation plate alongside an appropriate standard. […] Eluents were analysed by LC-MS/MS using a Phenomenex Gemini NX column (C18,30 x 2.1 mm, 3 micron). […]

The test system of data set [2] is CYP3A4, CYP2D6, CYP2C9, CYP2C19, CYP1A2. The data set can be described thus: Inhibition of CYP450, five isoform panel. The class given is in vitro ADME. The conditions noted are these: human, CYP450 isoform inhibition kit (BD Biosciences), 3A4, 2D6, 2C9, 2C19, 1A2, read-out: % inhibition of CYP450 isoforms. The protocol: A HepG2 cytotoxicity assay was used to determine a cellular selectivity index. HepG2 cells were seeded into 96-well plates in EMEM medium. Compounds were assessed for their effect upon cellular viability (Supplementary Methods 5.1). Inhibition of CYP450 was determined using kits from BD Biosciences (Supplementary Methods 5.2). Metabolic stability was determined using mouse […] tested at a single concentration of 5 µM. Plasma protein binding was determined using mouse and human plasma at a single concentration of 10 µM (Supplementary Methods 5.4). All PK studies in mice were carried out by Pharmidex (Supplementary Methods 6.1).
The compounds were investigated for their inhibitory effect on cytochrome P450 (CYP450) activity using five CYP450 isoforms (with fluorescent substrates in brackets): 3A4 (two substrates, BFC and DBF), 2D6 (AMMC), 2C9 (MFC), 2C19 (CEC) and 1A2 (CEC). Kits from BD Biosciences were used along with the method described by the manufacturer. […] Fluorescence was measured using a SpectraMax M5 plate reader.

Read-outs that look alike come from different tables or passages of the source.

In the case of `CN(C)CCn1ccc2c(ccn2Cc2ccc(Cl)c(Cl)c2)c1=O` [CTCB-405, 1-[(3,4-Dichlorophenyl)methyl]-5-[2-(dimethylamino)ethyl] pyrrolo[3,2-c]pyridin-4-one], the concentration at 2 h in data set [1] (brain homogenate, read-out: mean concentration in brain homogenate) was determined as 1510 ng/g; in data set [1] (plasma, read-out: mean plasma concentration), 366 ng/mL.

As to `CN(C)CCn1ccc2c(ccn2Cc2ccc(F)c(Br)c2)c1=O` [CTCB-508, 1-[(3-Bromo-4-fluorophenyl)methyl]-5-[2-(dimethylamino)ethyl] pyrrolo[3,2-c]pyridin-4-one], in data set [2], the inhibition at 10 µM is ≤ 10%.

For orientation: inhibition means the drop in the measured response relative to a control, in per cent.

The record behind these values is paper PMC7887271, “Fast acting allosteric phosphofructokinase inhibitors block trypanosome glycolysis and cure acute African trypanosomiasis in mice” (Nature Communications, 2021).
